Data as given in patent US4452778A, “Synergistic antibacterial compositions and method of treatment of infections caused by multiple antibiotic-resistant organisms” (Eli Lilly and Company, priority 1981, dated 1984).
≈ marks a conversion by molar mass, not a printed value. Structures can show the parent of a compound that is named as a salt. Where two headings read alike, the source gives them in different places.

Columns and labels:
Pseudomonas aeruginosa = assay: Checkerboard broth dilution synergy study (mic); assay type: cell-based; details: Table III; for MIC: Pseudomonas aeruginosa, read-out: mic, drug alone
Serratia marcescens = assay: Checkerboard broth dilution synergy study (mic); assay type: cell-based; details: Table III; for MIC: Serratia marcescens, read-out: mic, drug alone
E. cloacae = assay: Checkerboard broth dilution synergy study (mic); assay type: cell-based; details: Table III; for MIC: Enterobacter cloacae, read-out: mic, drug alone
Klebsiella pneumoniae = assay: Checkerboard broth dilution synergy study (mic); assay type: cell-based; details: Table III; for MIC: Klebsiella pneumoniae, read-out: mic, drug alone
Proteus rettgeri = assay: Checkerboard broth dilution synergy study (mic); assay type: cell-based; details: Table III; for MIC: Providencia rettgeri, read-out: mic, drug alone
Pseudomonas maltophilia = assay: Checkerboard broth dilution synergy study (mic); assay type: cell-based; details: Table III; for MIC: Stenotrophomonas maltophilia, read-out: mic, drug alone
Acinetobacter sp. = assay: Checkerboard broth dilution synergy study (mic); assay type: cell-based; details: Table III; for MIC: Acinetobacter, read-out: mic, drug alone
Pseudomonas pseudomallei = assay: microbe, parasite or virus in culture; assay type: cell-based
[1] = cited from earlier work; for average peak serum concentration: 1 hour
[2] = 1 mg/kg intramuscular; cited from earlier work

## NCC[C@H](O)C(=O)N[C@@H]1C[C@H](N)[C@@H](O[C@H]2O[C@H](CN)[C@@H](O)[C@H](O)[C@H]2O)[C@H](O)[C@H]1O[C@H]1O[C@H](CO)[C@@H](O)[C@H](N)[C@H]1O [amikacin]
Pseudomonas aeruginosa; isolate 316-2
  MIC: 16 µg/mL
  mic of each drug in combination I + A: 2 µg/mL
Pseudomonas aeruginosa; isolate 362
  MIC: 16 µg/mL
  mic of each drug in combination I + A: 2 µg/mL
Pseudomonas aeruginosa; isolate 363
  MIC: 32 µg/mL
  mic of each drug in combination I + A: 2 µg/mL
Pseudomonas aeruginosa; isolate 610
  MIC: 1 µg/mL
  mic of each drug in combination I + A: 1 µg/mL
Pseudomonas aeruginosa; isolate Brownlee
  MIC: 16 µg/mL
  mic of each drug in combination I + A: 4 µg/mL
Serratia marcescens; isolate 463-2
  MIC: 1 µg/mL
  mic of each drug in combination I + A: < 0.5 µg/mL
Serratia marcescens; isolate 606
  MIC: 1 µg/mL
  mic of each drug in combination I + A: < 0.5 µg/mL
Serratia marcescens; isolate 1414
  MIC: 8 µg/mL
  mic of each drug in combination I + A: < 0.5 µg/mL
Serratia marcescens; isolate B377
  MIC: 2 µg/mL
  mic of each drug in combination I + A: < 0.5 µg/mL
Serratia marcescens; isolate Ziegler
  MIC: 4 µg/mL
  mic of each drug in combination I + A: 2 µg/mL
E. cloacae; isolate 228
  MIC: 2 µg/mL
  mic of each drug in combination I + A: < 0.5 µg/mL
E. cloacae; isolate 1253
  MIC: 1 µg/mL
  mic of each drug in combination I + A: < 0.5 µg/mL
E. cloacae; isolate 1296
  MIC: 4 µg/mL
  mic of each drug in combination I + A: 0.5 µg/mL
E. cloacae; isolate 1415
  MIC: 8 µg/mL
  mic of each drug in combination I + A: < 0.5 µg/mL
E. cloacae; isolate McQuinn
  MIC: 32 µg/mL
  mic of each drug in combination I + A: 2 µg/mL
Klebsiella pneumoniae; isolate 130
  MIC: 4 µg/mL
  mic of each drug in combination I + A: < 0.5 µg/mL
Klebsiella pneumoniae; isolate 214-1
  MIC: 8 µg/mL
  mic of each drug in combination I + A: < 0.5 µg/mL
Klebsiella pneumoniae; isolate 463
  MIC: 2 µg/mL
  mic of each drug in combination I + A: < 0.5 µg/mL
Klebsiella pneumoniae; isolate 938
  MIC: 4 µg/mL
  mic of each drug in combination I + A: < 0.5 µg/mL
Klebsiella pneumoniae; isolate 1231
  MIC: 4 µg/mL
  mic of each drug in combination I + A: 2 µg/mL
Proteus rettgeri; isolate 53
  MIC: 8 µg/mL
  mic of each drug in combination I + A: < 0.5 µg/mL
Proteus rettgeri; isolate 136-1
  MIC: 4 µg/mL
  mic of each drug in combination I + A: 1 µg/mL
Proteus rettgeri; isolate 768
  MIC: 16 µg/mL
  mic of each drug in combination I + A: < 0.5 µg/mL
Proteus rettgeri; isolate 997
  MIC: 8 µg/mL
  mic of each drug in combination I + A: < 0.5 µg/mL
Proteus rettgeri; isolate 1422
  MIC: 4 µg/mL
  mic of each drug in combination I + A: 8 µg/mL
Pseudomonas maltophilia; isolate 10
  MIC: > 64 µg/mL
  mic of each drug in combination I + A: < 0.5 µg/mL
Pseudomonas maltophilia; isolate 505
  MIC: > 64 µg/mL
  mic of each drug in combination I + A: 1 µg/mL
Acinetobacter sp.; isolate 28-1
  MIC: 8 µg/mL
  mic of each drug in combination I + A: 8 µg/mL
Acinetobacter sp.; isolate 28-2
  MIC: 4 µg/mL
  mic of each drug in combination I + A: < 0.5 µg/mL
Acinetobacter sp.; isolate 106
  MIC: 2 µg/mL
  mic of each drug in combination I + A: < 0.5 µg/mL
Acinetobacter sp.; isolate 107
  MIC: 8 µg/mL
  mic of each drug in combination I + A: 8 µg/mL
Acinetobacter sp.; isolate 109
  MIC: 4 µg/mL
  mic of each drug in combination I + A: < 0.5 µg/mL
Pseudomonas pseudomallei; Burkholderia pseudomallei, read-out: mic, drug alone
  MIC: 32 µg/mL (≈ 54.6 µM)
Pseudomonas pseudomallei; Table III, isolate not named
  mic of each drug in combination I + A: 8 µg/mL
[1]; 250 mg (3.7 mg/kg) intramuscular
  average peak serum concentration: about 12 mcg/ml
[1]; 250 mg (3.7 mg/kg) intramuscular, 10 hours
  serum level: about 0.3 mcg/ml
[1]; 375 mg (5 mg/kg) intramuscular
  average peak serum concentration: ~16 µg/mL
[1]; 375 mg (5 mg/kg) intramuscular, 10 hours
  serum level: ~1200 ng/mL
[1]; 500 mg (7.5 mg/kg) infusion over 30 minutes, 30 minutes post-infusion
  serum level: 24000 ng/mL
[1]; 500 mg (7.5 mg/kg) infusion over 30 minutes, 1 hour post-infusion
  serum level: 18000 ng/mL
[1]; 500 mg (7.5 mg/kg) infusion over 30 minutes, 10 hours post-infusion
  serum level: 750 ng/mL
[1]; 500 mg (7.5 mg/kg) infusion over 30 minutes, end of infusion
  mean peak serum concentration: 38 µg/mL
[1]; 500 mg (7.5 mg/kg) intramuscular
  average peak serum concentration: ~21 µg/mL
[1]; 500 mg (7.5 mg/kg) intramuscular, 10 hours
  serum level: ~2100 ng/mL

## NC[C@H]1O[C@H](O[C@H]2[C@H](O)[C@@H](O[C@H]3O[C@H](CO)[C@@H](O)[C@H](N)[C@H]3O)[C@H](N)C[C@@H]2N)[C@H](N)C[C@@H]1O [tobramycin sulfate]
[2]
  maximum serum concentrations: about 4 mcg/ml
